Results reported in patent US20220349825A1, “METHOD AND DEVICE FOR MEASURING CELL CONTRACTILITY” (THE ROYAL INSTITUTION FOR THE ADVANCEMENT OF …, priority 2021, published 2022).

System: NIH-3T3 fibroblast cells
Assay: time-dependent coverage-based (PaCS) measurement of cellular forces of fibroblasts on square patterns on 12 kPa PDMS, compared with TFM
Format: cell-based, mouse
Conditions: 2 μM Cytochalasin D at end of 18 hours measurement; square patterns ~2400 μm^2; 12 kPa PDMS substrate
Method: The ability of the coverage-based technique to resolve time-dependent work was further tested. Fibroblast cellular forces on square patterns (˜2400 μm^2) on PDMS substrates (12 kPa) for 18 hours were measured; to further test the sensitivity of this technique the cellular forces was inhibited by depolymerizing actin using Cytochalasin D (Cyto D) in the last few hours of measurement. Using time-dependent coverage-based technique, cellular forces with time was measured when compared to TFM measurements, even after the Cyto D treatment, as presented in FIGS. 9c and 9d. […] Also the low strain energy values of ˜0.1 pJ indicate minimum resolution of the measurement on 12 kPa PDMS substrate. […]
After 16-18 hours of cell seeding, cells were stained with cell tracker green CMFDA (Thermofisher) to detect cell boundaries, and the plates were transferred to a lab-built heated stage perfused with 5% CO2 and mounted on a confocal microscope (Leica TCS SP8 with a 10×0.4 NA objective). With this setup, cells were imaged with transmission and fluorescence microscopy for extended periods, while maintaining a controlled culture environment
In PaCS, cells are confined on adhesive micropatterns of known area on linearly elastic silicone substrates. […] First, the deformed and undeformed pattern area are measured by thresholding the fluorescent pattern images. […]

C=C1[C@@H](C)[C@H]2[C@H](Cc3ccccc3)NC(=O)[C@]23[C@H](OC(C)=O)/C=C/[C@@](C)(O)C(=O)[C@@H](C)C/C=C/[C@H]3[C@@H]1O [Cytochalasin D]
cellular force (contractility) after drug treatment: decreased cellular force | pattern area after drug treatment: increased pattern area
